Laboratory results from publication PMC7794376 (Nature Communications, 2021).
Converted amounts (≈) assume the structure as drawn. Like-named read-outs stand apart in the source and are kept apart here.

Columns and labels:
[1] = molecular target: T1, MtbCoaBC (Mycobacterium tuberculosis, UniProt P9WNZ1); assay: High-throughput end-point pyrophosphate quantification assay (Biomol Green); format: biochemical; settings: MtbCoaB activity; end-point, 2 µM CTP, 40 µM L-cysteine, 30 µM PPA; read-out: IC50 biomol green assay
T1 sequence (P9WNZ1 whole entry): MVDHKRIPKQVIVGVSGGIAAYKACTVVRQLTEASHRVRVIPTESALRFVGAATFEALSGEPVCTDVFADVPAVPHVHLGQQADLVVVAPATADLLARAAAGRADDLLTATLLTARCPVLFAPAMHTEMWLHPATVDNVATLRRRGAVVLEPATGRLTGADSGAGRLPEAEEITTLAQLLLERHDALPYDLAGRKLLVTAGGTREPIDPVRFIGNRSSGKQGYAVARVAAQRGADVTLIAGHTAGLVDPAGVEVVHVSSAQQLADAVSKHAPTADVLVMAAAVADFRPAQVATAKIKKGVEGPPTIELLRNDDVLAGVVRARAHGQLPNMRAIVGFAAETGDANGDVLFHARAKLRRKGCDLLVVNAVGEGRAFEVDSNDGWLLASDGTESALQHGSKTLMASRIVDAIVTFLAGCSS

[2] = molecular target: T1, MtbCoaBC; assay: biochemical; format: biochemical; settings: for activity at 0.03125 µM / activity at 0.0625 µM / activity at 0.25 µM / activity at 0.5 µM / activity at 1 µM / activity at 2 µM: relative to average DMSO CT; for Activity R1 / Activity R3: slope of absorbance at 360 nm vs time (s)
[3] = test system: M. tuberculosis H37Rv; assay: MIC determination in different media; format: cell-based; settings: Mycobacterium tuberculosis, read-out: Minimum inhibitory concentration (MIC)

## O=c1cc(-c2ccc(O)cc2)oc2c(O)c(O)ccc12 [2e]
[1]
  IC50: 2200 nM
[2]; 0.03125 uM 2e, replicate R1, read-out: Inhibition % R1
  inhibition at 0.03125 µM: 5.66%
[2]; 0.03125 uM 2e, replicate R1, read-out: Activity % R1
  activity at 0.03125 µM: 94.3%
[2]; 0.03125 uM 2e, replicate R1
  Activity R1: 0.0001715
[2]; 0.03125 uM 2e, replicate R2, read-out: Inhibition % R2
  inhibition at 0.03125 µM: 2.73%
[2]; 0.03125 uM 2e, replicate R2, read-out: Activity % R2
  activity at 0.03125 µM: 97.3%
[2]; 0.03125 uM 2e, replicate R3, read-out: Inhibition % R3
  inhibition at 0.03125 µM: 8.32%
[2]; 0.03125 uM 2e, replicate R3, read-out: Activity % R3
  activity at 0.03125 µM: 91.7%
[2]; 0.03125 uM 2e, replicate R3
  Activity R3: 0.0001667
[2]; 0.0625 uM 2e, replicate R1, read-out: Inhibition % R1
  inhibition at 0.0625 µM: 10.7%
[2]; 0.0625 uM 2e, replicate R1, read-out: Activity % R1
  activity at 0.0625 µM: 89.3%
[2]; 0.0625 uM 2e, replicate R1
  Activity R1: 0.0001624
[2]; 0.0625 uM 2e, replicate R2, read-out: Inhibition % R2
  inhibition at 0.0625 µM: 12.6%
[2]; 0.0625 uM 2e, replicate R2, read-out: Activity % R2
  activity at 0.0625 µM: 87.4%
[2]; 0.0625 uM 2e, replicate R3, read-out: Inhibition % R3
  inhibition at 0.0625 µM: 12.3%
[2]; 0.0625 uM 2e, replicate R3, read-out: Activity % R3
  activity at 0.0625 µM: 87.7%
[2]; 0.0625 uM 2e, replicate R3
  Activity R3: 0.0001594
[2]; 0.25 uM 2e, replicate R1, read-out: Inhibition % R1
  inhibition at 0.25 µM: 38.7%
[2]; 0.25 uM 2e, replicate R1, read-out: Activity % R1
  activity at 0.25 µM: 61.3%
[2]; 0.25 uM 2e, replicate R1
  Activity R1: 0.0001114
[2]; 0.25 uM 2e, replicate R2, read-out: Inhibition % R2
  inhibition at 0.25 µM: 33.5%
[2]; 0.25 uM 2e, replicate R2, read-out: Activity % R2
  activity at 0.25 µM: 66.5%
[2]; 0.25 uM 2e, replicate R3, read-out: Inhibition % R3
  inhibition at 0.25 µM: 37.4%
[2]; 0.25 uM 2e, replicate R3, read-out: Activity % R3
  activity at 0.25 µM: 62.6%
[2]; 0.25 uM 2e, replicate R3
  Activity R3: 0.0001138
[2]; 0.5 uM 2e, replicate R1, read-out: Inhibition % R1
  inhibition at 0.5 µM: 54.7%
[2]; 0.5 uM 2e, replicate R1, read-out: Activity % R1
  activity at 0.5 µM: 45.3%
[2]; 0.5 uM 2e, replicate R1
  Activity R1: 0.000082371
[2]; 0.5 uM 2e, replicate R2, read-out: Inhibition % R2
  inhibition at 0.5 µM: 61.3%
[2]; 0.5 uM 2e, replicate R2, read-out: Activity % R2
  activity at 0.5 µM: 38.7%
[2]; 0.5 uM 2e, replicate R3, read-out: Inhibition % R3
  inhibition at 0.5 µM: 57.9%
[2]; 0.5 uM 2e, replicate R3, read-out: Activity % R3
  activity at 0.5 µM: 42.1%
[2]; 0.5 uM 2e, replicate R3
  Activity R3: 0.000076593
[2]; 1 uM 2e, replicate R1, read-out: Inhibition % R1
  inhibition at 1 µM: 69.6%
[2]; 1 uM 2e, replicate R1, read-out: Activity % R1
  activity at 1 µM: 30.4%
[2]; 1 uM 2e, replicate R1
  Activity R1: 0.000055348
[2]; 1 uM 2e, replicate R2, read-out: Inhibition % R2
  inhibition at 1 µM: 78.2%
[2]; 1 uM 2e, replicate R2, read-out: Activity % R2
  activity at 1 µM: 21.8%
[2]; 1 uM 2e, replicate R3, read-out: Inhibition % R3
  inhibition at 1 µM: 75.2%
[2]; 1 uM 2e, replicate R3, read-out: Activity % R3
  activity at 1 µM: 24.8%
[2]; 1 uM 2e, replicate R3
  Activity R3: 0.000045005
[2]; 2 uM 2e, replicate R1, read-out: Inhibition % R1
  inhibition at 2 µM: 96.5%
[2]; 2 uM 2e, replicate R1, read-out: Activity % R1
  activity at 2 µM: 3.46%
[2]; 2 uM 2e, replicate R1
  Activity R1: 0.000006285
[2]; 2 uM 2e, replicate R2, read-out: Inhibition % R2
  inhibition at 2 µM: 91.3%
[2]; 2 uM 2e, replicate R2, read-out: Activity % R2
  activity at 2 µM: 8.65%
[2]; 2 uM 2e, replicate R3, read-out: Inhibition % R3
  inhibition at 2 µM: 93%
[2]; 2 uM 2e, replicate R3, read-out: Activity % R3
  activity at 2 µM: 6.96%
[2]; 2 uM 2e, replicate R3
  Activity R3: 0.000012661
[2]; read-out: IC50 EnzChek MtbCoaBC
  IC50: 3000 ± 200 nM
[3]; 7H9/ADC/Glycerol
  MIC: > 250 µM
[3]; GAST/Fe
  MIC: 125 µM (≈ 33.8 µg/mL)
